In patent US20250206732A1, “COMPOUNDS AND METHODS FOR THE TARGETED DEGRADATION OF KRAS” (Arvinas Operations, Inc., priority 2022, published 2025) one finds Dmax and DC50 data, which are given here for 10 compounds.

Broadly, the Dmax is the greatest extent of degradation seen. In general, DC50 refers to the midpoint of the concentration-degradation curve.

This test concerns the target T1, AsPC-1 HiBiT-KRASG12D (Homo sapiens, UniProt P01116, G12D).
T1 construct: insert the HiBiT tag onto the N-terminus of one or more of the endogenous KRAS alleles; endogenous in cells; host or cells: AsPC-1 (ATCC CRL-1682), CRISPR-Cas9 knock-in clone, one tagged allele
As to the kind of experiment: HiBiT degradation assay (G12D), AsPC-1 HiBiT-KRASG12D cells. It is filed as cell-based. To be noted: 24 hours treatment; for Dmax: ASPC1, AsPC-1 HiBiT-KRASG12D cells, maximum degradation observed; for DC50: AsPC-1 HiBiT-KRASG12D cells, HiBiT luminescence. From the text:
Reagents. […] SW1573 cells are homozygous for the G12C mutation in KRAS, AsPC-1 cells are homozygous for the G12D mutation, and SW620 cells are homozygous for the G12V mutation. […] For degradation assays, 384 well plates were used. Alamar blue was purchased from ThermoFisher scientific (A50101) and used according to manufacturer instructions. The Nano-Glo® HiBiT Lytic Detection System and Nano-Glo® HiBiT Blotting System were purchased from Promega (#N3050 and #N2410) and used according to manufacturer instructions.
To create the AsPC-1 HiBiT-KRASG12D cell line, CRISPR-Cas9 was used to insert the HiBiT tag onto the N-terminus of one or more of the endogenous KRAS alleles. […] After knock-in of the tag, individual clones were isolated by single cell dilution and screened for HiBiT insertion by PCR. […] This clone was used in further studies.
HiBiT degradation assays (G12C and G12D). […] All assays were performed in triplicate. Cells were treated with compounds for 24 hours at 37° C. in an incubator containing 5% CO2. Following treatment, alamar blue was used to determine if any compounds led to a loss in cell viability after 24 hours. The 10× alamar blue reagent was added to a final concentration of 1× as recommended by the manufacturer and cells were returned to the incubator for 4 hours. Plates were then allowed to equilibrate to room temperature and fluorescence was measured using a Perkin-Elmer EnVision. After completion of the fluorescence read, the liquid from each well was removed and the cells were washed with PBS. The Nano-Glo® HiBiT detection reagent was prepared according to the manufacturer's instructions and added to each well after the PBS wash was removed. Following incubation at room temperature for 45 minutes, the luminescence was read using the ultra-sensitive luminescence aperture on the Envision instrument.
Data analysis. Fluorescence values from the alamar blue treatment were normalized to the DMSO-only control for each compound titration.

Where only a bound is given, the exact number is not on record here.

T1 sequence (P01116 1-188 isoform P01116-2 G12D): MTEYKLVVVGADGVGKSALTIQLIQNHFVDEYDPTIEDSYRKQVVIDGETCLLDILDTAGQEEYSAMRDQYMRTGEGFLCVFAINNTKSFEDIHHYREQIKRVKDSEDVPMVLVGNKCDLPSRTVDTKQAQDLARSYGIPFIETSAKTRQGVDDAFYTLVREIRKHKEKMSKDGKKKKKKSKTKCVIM

The compound `CCc1cccc2cc(O)cc(-c3ncc4c(N5CC6CCC(C5)N6)nc(OC[C@@]56CCCN5[C@H](COC(=O)N5CCN(c7cc([C@H](C(=O)N8C[C@H](O)C[C@H]8C(=O)N[C@@H](C)c8ccc(-c9scnc9C)cc8)C(C)C)on7)CC5)CC6)nc4c3F)c12` (relative stereo) [Compound 107, [(3R*,7aR**)-7a-{[(4-{3,8-diazabicyclo[3.2.1]octan-3-yl}-7-(8-ethyl-3-hydroxynaphthalen-1-yl)-8-fluoropyrido[4,3-d]pyrimidin-2-yl)oxy]methyl}-hexahydro-1H-pyrrolizin-3-yl]methyl 4-{5-[(2R***)-1-[(2S,4R)-4-hydroxy-2-{[(1S)-1-[4-(4-methyl-1,3-thiazol-5-yl)phenyl]ethyl]carbamoyl}pyrrolidin-1-yl]-3-methyl-1-oxobutan-2-yl]-1,2-oxazol-3-yl}piperazine-1-carboxylate] yielded a Dmax of 80 to 100% and a DC50 of less than 600 nM. Compound `CCc1cccc2cc(O)cc(-c3ncc4c(N5CC6CCC(C5)N6)nc(OC[C@]56CCCN5[C@@H](COC(=O)N5CCN(c7cc([C@H](C(=O)N8C[C@H](O)C[C@H]8C(=O)N[C@@H](C)c8ccc(-c9scnc9C)cc8)C(C)C)on7)CC5)CC6)nc4c3F)c12` (relative stereo) [Compound 110, [(3R*,7aR**)-7a-{[(4-{3,8-diazabicyclo[3.2.1]octan-3-yl}-7-(8-ethyl-3-hydroxynaphthalen-1-yl)-8-fluoropyrido[4,3-d]pyrimidin-2-yl)oxy]methyl}-hexahydro-1H-pyrrolizin-3-yl]methyl 4-{5-[(2R***)-1-[(2S,4R)-4-hydroxy-2-{[(1S)-1-[4-(4-methyl-1,3-thiazol-5-yl)phenyl]ethyl]carbamoyl}pyrrolidin-1-yl]-3-methyl-1-oxobutan-2-yl]-1,2-oxazol-3-yl}piperazine-1-carboxylate] showed a Dmax of 80 to 100% and a DC50 of less than 600 nM.

Compound `CCc1cccc2cc(O)cc(-c3ncc4c(N5CC6CCC(C5)N6)nc(OCCN5CCN(c6cc([C@H](C(=O)N7C[C@H](O)C[C@H]7C(=O)N[C@@H](C)c7ccc(-c8scnc8C)cc7)C(C)C)on6)CC5)nc4c3F)c12` (relative stereo) [Compound 134, (2S,4R)-1-[(2R*)-2-[3-(4-{2-[(4-{3,8-diazabicyclo[3.2.1]octan-3-yl}-7-(8-ethyl-3-hydroxynaphthalen-1-yl)-8-fluoropyrido[4,3-d]pyrimidin-2-yl)oxy]ethyl}piperazin-1-yl)-1,2-oxazol-5-yl]-3-methylbutanoyl]-4-hydroxy-N-[(1S)-1-[4-(4-methyl-1,3-thiazol-5-yl)phenyl]ethyl]pyrrolidine-2-carboxamide] returned a maximal degradation (Dmax) of 20 to 60% and a DC50 of 1000 to 3000 nM. With `CCc1cccc2cc(O)cc(-c3ncc4c(N5CC6CCC(C5)N6)nc(OCCN5CCC(N(C)c6cc([C@H](C(=O)N7C[C@H](O)C[C@H]7C(=O)N[C@@H](C)c7ccc(-c8scnc8C)cc7)C(C)C)on6)CC5)nc4c3F)c12` (relative stereo) [Compound 135, (2S,4R)-1-[(2R*)-2-{3-[(1-{2-[(4-{3,8-diazabicyclo[3.2.1]octan-3-yl}-7-(8-ethyl-3-hydroxynaphthalen-1-yl)-8-fluoropyrido[4,3-d]pyrimidin-2-yl)oxy]ethyl}piperidin-4-yl)(methyl)amino]-1,2-oxazol-5-yl}-3-methylbutanoyl]-4-hydroxy-N-[(1S)-1-[4-(4-methyl-1,3-thiazol-5-yl)phenyl]ethyl]pyrrolidine-2-carboxamide], the Dmax was in the range of 80 to 100% and the 50% degradation concentration (DC50) was less than 600 nM. In turn, `CCc1cccc2cc(O)cc(-c3ncc4c(N5CC6CCC(C5)N6)nc(OCCN5CCN(c6cc([C@@H](C(=O)N7C[C@H](O)C[C@H]7C(=O)N[C@@H](C)c7ccc(-c8scnc8C)cc7)C(C)C)on6)CC5)nc4c3F)c12` (relative stereo) [Compound 136, (2S,4R)-1-[(2R*)-2-[3-(4-{2-[(4-{3,8-diazabicyclo[3.2.1]octan-3-yl}-7-(8-ethyl-3-hydroxynaphthalen-1-yl)-8-fluoropyrido[4,3-d]pyrimidin-2-yl)oxy]ethyl}piperazin-1-yl)-1,2-oxazol-5-yl]-3-methylbutanoyl]-4-hydroxy-N-[(1S)-1-[4-(4-methyl-1,3-thiazol-5-yl)phenyl]ethyl]pyrrolidine-2-carboxamide] came in with a DC50 of more than 3000 nM.

Turning to `CCc1cccc2cc(O)cc(-c3ncc4c(N5CC6CCC(C5)N6)nc(OCCN5CCC(N(C)c6cc([C@@H](C(=O)N7C[C@H](O)C[C@H]7C(=O)N[C@@H](C)c7ccc(-c8scnc8C)cc7)C(C)C)on6)CC5)nc4c3F)c12` (relative stereo) [Compound 137, (2S,4R)-1-[(2R*)-2-{3-[(1-{2-[(4-{3,8-diazabicyclo[3.2.1]octan-3-yl}-7-(8-ethyl-3-hydroxynaphthalen-1-yl)-8-fluoropyrido[4,3-d]pyrimidin-2-yl)oxy]ethyl}piperidin-4-yl)(methyl)amino]-1,2-oxazol-5-yl}-3-methylbutanoyl]-4-hydroxy-N-[(1S)-1-[4-(4-methyl-1,3-thiazol-5-yl)phenyl]ethyl]pyrrolidine-2-carboxamide], the Dmax lay within 20 to 60% and the 50% degradation concentration (DC50) lay in the range of 1000 to 3000 nM. Take `CCc1cccc2cc(O)cc(-c3ncc4c(N5CC6CCC(C5)N6)nc(OCCN5CCC(Oc6cc([C@H](C(=O)N7C[C@H](O)C[C@H]7C(=O)N[C@@H](C)c7ccc(-c8scnc8C)cc7)C(C)C)on6)CC5)nc4c3F)c12` (relative stereo) [Compound 138, (2S,4R)-1-[(2R*)-2-{3-[(1-{2-[(4-{3,8-diazabicyclo[3.2.1]octan-3-yl}-7-(8-ethyl-3-hydroxynaphthalen-1-yl)-8-fluoropyrido[4,3-d]pyrimidin-2-yl)oxy]ethyl}piperidin-4-yl)oxy]-1,2-oxazol-5-yl}-3-methylbutanoyl]-4-hydroxy-N-[(1S)-1-[4-(4-methyl-1,3-thiazol-5-yl)phenyl]ethyl]pyrrolidine-2-carboxamide]: the Dmax lay in the range of 80 to 100% and the DC50 is less than 600 nM. As to `CCc1cccc2cc(O)cc(-c3ncc4c(N5CC6CCC(C5)N6)nc(OCCN5CCC(Oc6cc([C@@H](C(=O)N7C[C@H](O)C[C@H]7C(=O)N[C@@H](C)c7ccc(-c8scnc8C)cc7)C(C)C)on6)CC5)nc4c3F)c12` (relative stereo) [Compound 139, (2S,4R)-1-[(2R*)-2-{3-[(1-{2-[(4-{3,8-diazabicyclo[3.2.1]octan-3-yl}-7-(8-ethyl-3-hydroxynaphthalen-1-yl)-8-fluoropyrido[4,3-d]pyrimidin-2-yl)oxy]ethyl}piperidin-4-yl)oxy]-1,2-oxazol-5-yl}-3-methylbutanoyl]-4-hydroxy-N-[(1S)-1-[4-(4-methyl-1,3-thiazol-5-yl)phenyl]ethyl]pyrrolidine-2-carboxamide], the greatest degradation seen (Dmax) is less than 20% and the DC50 is 1000 to 3000 nM. In the case of `CCc1cccc2cc(O)cc(-c3ncc4c(N5CC6CCC(C5)N6)nc(OCCN5CCC6(CC5)CN(c5cc([C@H](C(=O)N7C[C@H](O)C[C@H]7C(=O)N[C@@H](C)c7ccc(-c8ccnn8C)cc7)C(C)C)on5)C6)nc4c3F)c12` (relative stereo) [Compound 140, (2S,4R)-1-[(2R*)-2-[3-(7-{2-[(4-{3,8-diazabicyclo[3.2.1]octan-3-yl}-7-(8-ethyl-3-hydroxynaphthalen-1-yl)-8-fluoropyrido[4,3-d]pyrimidin-2-yl)oxy]ethyl}-2,7-diazaspiro[3.5]nonan-2-yl)-1,2-oxazol-5-yl]-3-methylbutanoyl]-4-hydroxy-N-[(1S)-1-[4-(1-methyl-1H-pyrazol-5-yl)phenyl]ethyl]pyrrolidine-2-carboxamide], the Dmax lay in the range of 80 to 100% and the half-maximal degradation concentration (DC50) is less than 600 nM. Regarding `CCc1cccc2cc(O)cc(-c3ncc4c(N5CC6CCC(C5)N6)nc(OCCN5CCC6(CC5)CN(c5cc([C@@H](C(=O)N7C[C@H](O)C[C@H]7C(=O)N[C@@H](C)c7ccc(-c8ccnn8C)cc7)C(C)C)on5)C6)nc4c3F)c12` (relative stereo) [Compound 141, (2S,4R)-1-[(2R*)-2-[3-(7-{2-[(4-{3,8-diazabicyclo[3.2.1]octan-3-yl}-7-(8-ethyl-3-hydroxynaphthalen-1-yl)-8-fluoropyrido[4,3-d]pyrimidin-2-yl)oxy]ethyl}-2,7-diazaspiro[3.5]nonan-2-yl)-1,2-oxazol-5-yl]-3-methylbutanoyl]-4-hydroxy-N-[(1S)-1-[4-(1-methyl-1H-pyrazol-5-yl)phenyl]ethyl]pyrrolidine-2-carboxamide], the Dmax fell in the range of 20 to 60% and the 50% degradation concentration (DC50) lay within 1000 to 3000 nM.
